This note sets out measurements from US9416128B2, “Fused heterocyclic compounds as ion channel modulators” (Gilead Sciences, Inc., priority 2013, dated 2016).

Experiment [1] has as its target wild-type human cardiac sodium channel, hNaV 1.5 (Peak INa) (Homo sapiens, UniProt Q14524). The experiment can be described thus: Peak INa screening assay (tonic block and use-dependent block). The format is cell-based. The protocol:
The assay uses an HEK293 (human embryonic kidney) cell line heterologously expressing the wild-type human cardiac sodium channel, hNaV 1.5, purchased from Millipore (Billerica, Mass.). No beta subunits were coexpressed with the Na channel alpha subunit. Cells are maintained with standard tissue culture procedures and stable channel expression is maintained with 400 μg/mL Geneticin in the culture medium. […] Currents are digitized at 25 kHz and low-pass filtered at 5 kHz and stored in the Sophion Bioscience Oracle database (Sophion Bioscience, Copenhagen, Denmark). Analysis is performed using QPatch Assay software and data are compiled in Excel 2010 (Microsoft, Seattle, Wash., U.S.A.). Compound stocks are routinely made by the Gilead Sample Bank in vials to 10 mM in dimethyl sulfoxide (DMSO). In some cases, when compounds are not soluble in DMSO, they are made in 100% ethanol. Stocks are sonicated as necessary. The extracellular solution for screening Late INa is composed of: 140 mM NaCl, 4 mM KCl, 1.8 mM CaCl2, 1 mM MgCl2, 10 mM HEPES and 10 mM Dextrose with pH adjusted to 7.35 using NaOH. The intracellular solution contains: 105 mM CsF, 20 mM CsCl, 10 NaF, 2 mM EGTA, 10 mM HEPES and 10 mM Dextrose with pH adjusted to 7.35 with CsOH. Compounds are diluted in extracellular solution using a MicroLab Nimbus (Hamilton Robotics, Reno, Nev.) to between 0.3 and 3 μM in glass vials and transferred to glass well plates before robotic addition to the cells. […] It is contemplated that the compounds of Formula I avoid significant block of peak INa. […] The intracellular solution used for the Peak INa assay is the same as outlined for the Late INa assay (see above). After establishing the whole cell recording configuration, channels were stimulated to open with low frequency (0.1 Hz) for so that the recording can be monitored and the extent to which the recording has stabilized can be assessed. The test compound is then applied at 1 or 3 μM was added 2 times at 60 second intervals. After the second compound addition, a 200 second wait period was imposed to allow for equilibration. Voltage protocols for TB and UDB are were performed in the absence and presence of compound and TB and UDB are calculated with respect to the compound free condition. Both TB and UDB were analyzed by incorporating rundown correction for the peak INa.

Experiment [2] concerns the target wild-type human cardiac sodium channel, hNaV 1.5 (Late INa) (Homo sapiens, UniProt Q14524). Kind of experiment: Late INa screening assay (whole cell patch clamp, QPatch, Tefluthrin-induced late current). Format: cell-based. The following applies: HEK293 hNaV1.5, 10 μM Tefluthrin; for inhibition at 1 µM: HEK293, % inhibition (percent block of late INa) at 1 uM, read-out: Nav1.5 Late INa 1 uM. The protocol:
The cardiac late sodium current (Late INa) and peak sodium current (Peak INa) assays are performed on an automated electrophysiology platform, QPatch 16X or QPatch HT (Sophion Bioscience, Copenhagen, Denmark) using the whole cell patch clamp technique to measure currents through the cell membrane. The assay uses an HEK293 (human embryonic kidney) cell line heterologously expressing the wild-type human cardiac sodium channel, hNaV 1.5, purchased from Millipore (Billerica, Mass.). No beta subunits were coexpressed with the Na channel alpha subunit. Cells are maintained with standard tissue culture procedures and stable channel expression is maintained with 400 μg/mL Geneticin in the culture medium. Experiments are carried out at 23-25° C.
For both the Late INa and Peak INa assays, series resistance compensation is set to 100% and series resistance and whole-cell compensation are performed automatically. Currents are digitized at 25 kHz and low-pass filtered at 5 kHz and stored in the Sophion Bioscience Oracle database (Sophion Bioscience, Copenhagen, Denmark). Analysis is performed using QPatch Assay software and data are compiled in Excel 2010 (Microsoft, Seattle, Wash., U.S.A.).
Compound stocks are routinely made by the Gilead Sample Bank in vials to 10 mM in dimethyl sulfoxide (DMSO). In some cases, when compounds are not soluble in DMSO, they are made in 100% ethanol. Stocks are sonicated as necessary. The extracellular solution for screening Late INa is composed of: 140 mM NaCl, 4 mM KCl, 1.8 mM CaCl2, 1 mM MgCl2, 10 mM HEPES and 10 mM Dextrose with pH adjusted to 7.35 using NaOH. The intracellular solution contains: 105 mM CsF, 20 mM CsCl, 10 NaF, 2 mM EGTA, 10 mM HEPES and 10 mM Dextrose with pH adjusted to 7.35 with CsOH. Compounds are diluted in extracellular solution using a MicroLab Nimbus (Hamilton Robotics, Reno, Nev.) to between 0.3 and 3 μM in glass vials and transferred to glass well plates before robotic addition to the cells. The 0 mM Na extracellular solution (0Na-ECF) used at the end of each experiment for the Late INa and Peak INa assays to measure baseline current contains: 140 Choline-Cl; 4 mM KCl, 1.8 mM CaCl2; 1 mM MgCl2; 10 mM HEPES and 10 mM Dextrose with pH was adjusted to 7.35 with CsOH.
For the Late INa assay, sodium channels are activated every 10 seconds (0.1 Hz) by depolarizing the cell membrane to −20 mV for 250 milliseconds (ms) from a holding potential of −120 mV.
Compounds were tested to determine their activity in blocking the late sodium current. Late INa was generated by adding 10 μM Tefluthrin (pyrethroid) to the extracellular solution. For the purposes of the screening, Late INa is defined as the mean current between 240 ms and 265 ms during the voltage step to −20 mV. After establishing the whole cell recording configuration, Late INa activator is added to each well 4 times over a 15 minute period so that the late component of the Na current reaches a stable value. Compounds were then added (typically at 0.3 or 1 μM), in the presence of the Late INa activator, with 3 additions over the course of 5 minutes. Measurements were made at the end of exposure to the third compound addition and values were normalized to the current level when all Na^+ was removed from the extracellular solution after two additions of 0Na-ECF.
Results are reported as percent block of late INa and results were analyzed by incorporating rundown correction for the Late INa.

[3] abbreviates: % inhibition, use-dependent block of peak INa at 3 uM, 3 Hz, pulse 50, read-out: Nav1.5 Peak UDB 3 Hz 3 uM.
[4] abbreviates: read-out: Nav1.5 Peak TB 3 uM, % inhibition, tonic block of peak INa at 3 uM, 0.1 Hz, holding -100 mV.

Read-outs that look alike come from different tables or passages of the source. A value given as a limit tells only on which side of the number the result lay.

Sequence of wild-type human cardiac sodium channel, hNaV 1.5 (Late INa) (Q14524 whole entry): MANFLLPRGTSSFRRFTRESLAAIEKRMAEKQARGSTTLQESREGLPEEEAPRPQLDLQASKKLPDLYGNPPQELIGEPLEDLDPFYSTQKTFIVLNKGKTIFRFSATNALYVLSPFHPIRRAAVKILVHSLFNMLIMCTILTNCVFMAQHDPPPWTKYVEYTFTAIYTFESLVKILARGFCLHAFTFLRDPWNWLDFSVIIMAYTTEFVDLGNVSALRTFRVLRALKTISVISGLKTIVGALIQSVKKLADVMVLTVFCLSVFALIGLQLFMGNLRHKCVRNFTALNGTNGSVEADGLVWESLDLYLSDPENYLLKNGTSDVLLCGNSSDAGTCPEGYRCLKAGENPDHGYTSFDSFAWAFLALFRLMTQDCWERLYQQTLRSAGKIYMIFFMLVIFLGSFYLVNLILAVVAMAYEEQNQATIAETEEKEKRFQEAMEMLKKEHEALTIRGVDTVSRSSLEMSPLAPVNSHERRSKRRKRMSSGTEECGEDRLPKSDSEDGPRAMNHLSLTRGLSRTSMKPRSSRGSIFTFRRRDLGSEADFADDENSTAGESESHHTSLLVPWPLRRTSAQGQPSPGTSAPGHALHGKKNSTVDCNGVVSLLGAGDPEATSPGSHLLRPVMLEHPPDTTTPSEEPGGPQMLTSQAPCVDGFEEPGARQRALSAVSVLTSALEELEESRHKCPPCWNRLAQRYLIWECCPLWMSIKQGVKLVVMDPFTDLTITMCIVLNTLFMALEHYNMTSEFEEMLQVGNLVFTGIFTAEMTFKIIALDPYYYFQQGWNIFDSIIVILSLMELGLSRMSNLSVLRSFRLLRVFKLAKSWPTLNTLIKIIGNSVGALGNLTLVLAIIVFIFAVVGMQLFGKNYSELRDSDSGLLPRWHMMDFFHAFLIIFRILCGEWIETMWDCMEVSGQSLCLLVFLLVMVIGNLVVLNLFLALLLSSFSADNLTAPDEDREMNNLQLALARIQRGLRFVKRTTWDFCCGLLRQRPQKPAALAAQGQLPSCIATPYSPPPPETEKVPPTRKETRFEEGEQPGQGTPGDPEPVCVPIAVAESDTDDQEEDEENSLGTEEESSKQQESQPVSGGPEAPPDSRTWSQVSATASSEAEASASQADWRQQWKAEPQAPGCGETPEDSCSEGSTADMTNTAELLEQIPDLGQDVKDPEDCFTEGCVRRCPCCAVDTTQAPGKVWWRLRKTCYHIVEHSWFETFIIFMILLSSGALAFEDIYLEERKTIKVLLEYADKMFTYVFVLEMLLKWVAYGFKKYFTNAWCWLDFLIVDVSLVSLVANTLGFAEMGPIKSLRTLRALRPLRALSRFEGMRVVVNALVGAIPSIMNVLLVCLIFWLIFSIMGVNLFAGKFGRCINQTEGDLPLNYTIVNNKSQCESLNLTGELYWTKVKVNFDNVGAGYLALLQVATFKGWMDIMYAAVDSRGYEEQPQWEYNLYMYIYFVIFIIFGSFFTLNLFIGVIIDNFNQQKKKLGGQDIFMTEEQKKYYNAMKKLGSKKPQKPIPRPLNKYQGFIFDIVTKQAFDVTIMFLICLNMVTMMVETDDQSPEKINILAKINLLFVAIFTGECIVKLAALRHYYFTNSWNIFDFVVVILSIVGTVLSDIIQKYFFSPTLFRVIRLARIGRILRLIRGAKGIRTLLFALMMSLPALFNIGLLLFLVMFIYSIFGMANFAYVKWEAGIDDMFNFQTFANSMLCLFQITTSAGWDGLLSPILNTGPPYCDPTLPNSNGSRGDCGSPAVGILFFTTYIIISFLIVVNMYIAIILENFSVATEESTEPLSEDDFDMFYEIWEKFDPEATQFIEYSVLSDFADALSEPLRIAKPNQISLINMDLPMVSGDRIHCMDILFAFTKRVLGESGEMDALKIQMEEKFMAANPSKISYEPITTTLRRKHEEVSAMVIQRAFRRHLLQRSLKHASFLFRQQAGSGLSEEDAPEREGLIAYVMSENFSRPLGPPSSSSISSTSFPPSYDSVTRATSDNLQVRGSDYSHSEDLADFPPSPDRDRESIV
Sequence of wild-type human cardiac sodium channel, hNaV 1.5 (Peak INa) (Q14524 whole entry): as above

Turning to `COc1cc(OC(F)(F)F)ccc1-c1ccc2c(c1)CN(Cc1ncccn1)C(=O)O2` [Example 1, 6-(2-methoxy-4-(trifluoromethoxy)phenyl)-3-(pyrimidin-2-ylmethyl)-3,4-dihydro-2H-benzo[e][1,3]oxazin-2-one], the inhibition at 3 µM is 9.6% in experiment [1] (setting [3]) and 26.7% in experiment [1] (setting [4]).
`O=C1Oc2ccc(-c3ccc(C(F)(F)F)cc3)cc2CN1Cc1ccncc1` [Example 2, 3-(pyridin-4-ylmethyl)-6-(4-(trifluoromethyl)phenyl)-3,4-dihydro-2H-benzo[e][1,3]oxazin-2-one]: the inhibition at 1 µM in experiment [2] amounted to 41.5%. Further, the inhibition at 3 µM in experiment [1] (setting [3]) turned out to be 16.2%; in experiment [1] (setting [4]), 18.5%.
The matching figures for `Cc1cc(-c2ccc3c(c2)CN(Cc2ncccn2)C(=O)O3)ccc1OC(F)(F)F` [Example 5, 6-(3-methyl-4-(trifluoromethoxy)phenyl)-3-(pyrimidin-2-ylmethyl)-3,4-dihydro-2H-benzo[e][1,3]oxazin-2-one]: 37.3%, less than 5% and 10.1%.
The matching figures for `O=C1Oc2ccc(-c3ccc(Cl)c(F)c3)cc2CN1Cc1ncccn1` [Example 6, 6-(4-chloro-3-fluorophenyl)-3-(pyrimidin-2-ylmethyl)-3,4-dihydro-2H-benzo[e][1,3]oxazin-2-one]: 43.3%, less than 5% and 19.9%.
The matching figures for `O=C1Oc2ccc(-c3ccc(OC(F)(F)F)cc3F)cc2CN1Cc1ncccn1` [Example 7, 6-(2-fluoro-4-(trifluoromethoxy)phenyl)-3-(pyrimidin-2-ylmethyl)-3,4-dihydro-2H-benzo[e][1,3]oxazin-2-one]: 42.3%, less than 5% and 14.9%.
Regarding `Cc1cc(OC(F)(F)F)ccc1-c1ccc2c(c1)CN(Cc1ncccn1)C(=O)O2` [Example 8, 6-(2-methyl-4-(trifluoromethoxy)phenyl)-3-(pyrimidin-2-ylmethyl)-3,4-dihydro-2H-benzo[e][1,3]oxazin-2-one], the inhibition at 1 µM in experiment [2] worked out at 52.7%. Further, the figures for the inhibition at 3 µM in experiment [1] (setting [3]) and in experiment [1] (setting [4]) were less than 5% and 12.5%, respectively.
In the case of `COc1cc(OC(F)(F)F)ccc1-c1ccc2c(c1)CN(Cc1ncccn1)C(=O)O2` [Example 9, 6-(2-methoxy-4-(trifluoromethoxy)phenyl)-3-(pyrimidin-2-ylmethyl)-3,4-dihydro-2H-benzo[e][1,3]oxazin-2-one], the “Nav1.5 Late INa 1 uM” value in experiment [2] (% inhibition (percent block of late INa) at 1 uM) is listed as 45.0%. Further, in experiment [1] (% inhibition, tonic block of peak INa at 3 uM, 0.1 Hz, holding -100 mV), the “Nav1.5 Peak TB 3 uM” value is listed as 18.9%. Further, the “Nav1.5 Peak UDB 3 Hz 3 uM” value in experiment [1] (% inhibition, use-dependent block of peak INa at 3 uM, 3 Hz, pulse 50) is listed as less than 5%.
`O=C1Oc2ccc(-c3ccc(OC(F)(F)F)c(F)c3)cc2CN1Cc1ncccn1` [Example 10, 6-(3-fluoro-4-(trifluoromethoxy)phenyl)-3-(pyrimidin-2-ylmethyl)-3,4-dihydro-2H-benzo[e][1,3]oxazin-2-one]: the inhibition at 1 µM in experiment [2] is 57.2%. Moreover, the results for the inhibition at 3 µM in experiment [1] (setting [3]) and in experiment [1] (setting [4]) were 10.8% and 14.2%, respectively.
The matching figures for `CC1c2cc(-c3ccc(Cl)c(F)c3)ccc2OC(=O)N1Cc1ncccn1` (centres unmarked) [Example 11, 6-(4-chloro-3-fluorophenyl)-4-methyl-3-(pyrimidin-2-ylmethyl)-3,4-dihydro-2H-benzo[e][1,3]oxazin-2-one]: 32.5%, 5.6% and 19.4%.
Taken in the same sequence, the figures for `Cc1cnc(CN2Cc3cc(-c4ccc(OC(F)(F)F)cc4)ccc3OC2=O)nc1` [Example 12, 3-((5-methylpyrimidin-2-yl)methyl)-6-(4-(trifluoromethoxy)phenyl)-3,4-dihydro-2H-benzo[e][1,3]oxazin-2-one] were 50.5%, less than 5% and 16.6%.
